Assay results published in patent US11649218B2, “C-Abl tyrosine kinase inhibitory compound embodiments and methods of making and using the same” (The USA, as represented by the Secretary, Dept. of Health …, priority 2018, dated 2023).

Assays:
[1] = Pharmacokinetic profile in plasma; assay type: in vivo, mice; settings: 12.5 mg/kg IP
[2] = Pharmacokinetic profile in brain; assay type: in vivo, mice; settings: 12.5 mg/kg IP
[3] = tested on: P. falciparum strain NF54 asexual parasites; assay: Asexual stage parasite growth inhibition, SYBR Green assay, 72 hours; assay type: cell-based; settings: NF54, 72 hours; for IC50: Plasmodium falciparum
Protocol: In this example, several of the c-Abl inhibitors were tested in the asexual […] strain of P. falciparum parasites for activity against malaria. […] The pre-diluted parasites were dispensed into a 1536-well plate (2.5 μL/well). […] The fluorescence of each well was measured at 520 nm following excitation at 490 nm using a ViewLux platereader (PerkinElmer).

[4] = tested on: Leukemia K562 cell; assay: Leukemia K562 cell proliferation/viability assay (CellTiterGlo, 48 hours); assay type: cell-based; parameters: unit not given here; settings: K562 cells
Protocol: C-Abl is encoded by the ABL1 gene (NCBI Gene ID NO. 25). […] Assays for determining if a small molecule inhibits c-Abl activity are known. Non-limiting examples include cell proliferation assays using cancer cells that are BCR-Abl positive and depend on BCR-Abl for growth, such as the leukemia cell line K562. […] In some embodiments described herein, compounds are tested for ability to reduce K562 cell proliferation in an HTS adapted assay which measures cell viability using the reagent CellTiterGlo after 48 hours treatment.

Row | SMILES | Efficacy [4] | other results
1 | O=C(Nc1ccc(OC(F)(F)Cl)cc1)c1cnc(N2CC[C@@H](O)C2)c(-c2ccn[nH]2)c1 [ABL001] | – | Plasma concentration ([1]; Time 0.167): 5.454 µM; Plasma concentration ([1]; Time 0.5): 9.137 µM; Plasma concentration ([1]; Time 1): 11.174 µM; Plasma concentration ([1]; Time 1.5): 10.189 µM; Plasma concentration ([1]; Time 2): 5.483 µM; Plasma concentration ([1]; Time 4): 1.628 µM; Plasma concentration ([1]; Time 7): 0.399 µM; Plasma concentration ([1]; Time 24): 0.007 µM; Brain concentration ([2]; Time 0.167): 0.330 µmol/kg; Brain concentration ([2]; Time 0.5): 0.534 µmol/kg; Brain concentration ([2]; Time 1): 0.597 µmol/kg; Brain concentration ([2]; Time 1.5): 0.442 µmol/kg; Brain concentration ([2]; Time 2): 0.336 µmol/kg; Brain concentration ([2]; Time 4): 0.119 µmol/kg; Brain concentration ([2]; Time 7): 0.056 µmol/kg; Brain concentration ([2]; Time 24): 0.003 µmol/kg
2 | O=C1Nc2cc(OC(F)(F)F)ccc2Oc2ccc(-c3ccnc(N4CCOCC4)c3)cc21 [NCGC00411866, 2-(2-Morpholinopyridin-4-yl)-8-(trifluoromethoxy)dibenzo[b,f][1,4]oxazepin-11(10H)-one] | – | % Killing [3]: 92.9%; IC50 [3]: 9.69 µM
3 | O=C1Nc2cc(OC(F)(F)F)ccc2Oc2ccc(-c3cccc(S(=O)(=O)NCCO)c3)cc21 [NCGC00373064, N-(2-Hydroxyethyl)-3-(11-oxo-8-(trifluoromethoxy)-10,11-dihydrodibenzo[b,f][1,4]oxazepin-2-yl)benzenesulfonamide] | −103.3 | –
4 | CN1CCN(c2cc(-c3ccc4c(c3)C(=O)Nc3cc(OC(F)(F)F)ccc3O4)ccn2)CC1 [NCGC00373063, 2-(2-(4-Methylpiperazin-1-yl)pyridin-4-yl)-8-(trifluoromethoxy)dibenzo[b,f][1,4]oxazepin-11(10H)-one] | −107.9 | –
5 | O=C1Nc2cc(OC(F)(F)F)ccc2Oc2ccc(-c3ccc4[nH]ncc4c3)cc21 [NCGC00373058, 2-(1H-Indazol-5-yl)-8-(trifluoromethoxy)dibenzo[b,f][1,4]oxazepin-11(10H)-one] | −74.3 | –
6 | CS(=O)(=O)Nc1ccc(-c2ccc3c(c2)C(=O)Nc2cc(OC(F)(F)F)ccc2N3)cc1 [NCGC00355552, N-(4-(11-oxo-8-(trifluoromethoxy)-10,11-dihydro-5H-dibenzo[b,e][1,4]diazepin-2-yl)phenyl)methanesulfonamide] | −86.3 | –
7 | O=C1Nc2cc(OC(F)(F)F)ccc2Oc2ccc(CCB(O)O)cc21 [NCGC00390141, (2-(11-Oxo-8-(trifluoromethoxy)-10,11-dihydrodibenzo[b,f][1,4]oxazepin-2-yl)ethyl)boronic acid] | −45.8 | –
8 | NC(=O)c1cccc(-c2ccc3c(c2)C(=O)Nc2cc(OC(F)(F)F)ccc2O3)c1 [NCGC00356842, 3-(11-Oxo-8-(trifluoromethoxy)-10,11-dihydrodibenzo[b,f][1,4]oxazepin-2-yl)benzamide] | −67.0 | –
9 | O=C1Nc2cc(OCCC(F)(F)F)ccc2Oc2ccc(-c3ccnc(N4CCOCC4)c3)cc21 [NCGC00481507, 2-(2-Morpholinopyridin-4-yl)-8-(3,3,3-trifluoropropoxy)dibenzo[b,f][1,4]oxazepin-11(10H)-one] | −85.5 | –
10 | CN(C)CCn1cc(-c2ccc3c(c2)C(=O)Nc2cc(OC(F)(F)F)ccc2O3)cn1 [NCGC00387297, 2-(1-(2-(Dimethylamino)ethyl)-1H-pyrazol-4-yl)-8-(trifluoromethoxy)dibenzo[b,f][1,4]oxazepin-11(10H)-one] | −115.7 | –
11 | O=C1Nc2cc(OC(F)(F)F)ccc2Oc2ccc(-c3cccc(CO)c3)cc21 [NCGC00415061, 2-(3-(Hydroxymethyl)phenyl)-8-(trifluoromethoxy)dibenzo[b,f][1,4]oxazepin-11(10H)-one] | −71.4 | –
12 | O=C1Nc2cc(OC(F)(F)F)ccc2Oc2ccc(-c3cccnc3)cc21 [NCGC00371308, 2-(Pyridin-3-yl)-8-(trifluoromethoxy)dibenzo[b,f][1,4]oxazepin-11(10H)-one] | −7.0 | –
13 | COC(=O)c1ccc2c(c1)C(=O)Nc1cc(OC(F)(F)F)ccc1O2 [NCGC00387394] | 0.0 | –
14 | O=C1Nc2cc(OC(F)(F)F)ccc2Sc2ccc(-c3ccnc(N4CCOCC4)c3)cc21 [NCGC00482456, 2-(2-Morpholinopyridin-4-yl)-8-(trifluoromethoxy)dibenzo[b,f][1,4]thiazepin-11(10H)-one] | −85.7 | –
15 | CC(C)(O)c1cccc(-c2ccc3c(c2)C(=O)Nc2cc(OC(F)(F)F)ccc2O3)c1 [NCGC00411876, 2-(3-(2-Hydroxypropan-2-yl)phenyl)-8-(trifluoromethoxy)dibenzo[b,f][1,4]oxazepin-11(10H)-one] | −86.3 | –
16 | O=C1Nc2cc(OCC(F)(F)F)ccc2Oc2ccc(-c3ccnc(N4CCOCC4)c3)cc21 [NCGC00481504, 2-(2-Morpholinopyridin-4-yl)-8-(2,2,2-trifluoroethoxy)dibenzo[b,f][1,4]oxazepin-11(10H)-one] | −85.1 | –

Row | SMILES | Efficacy [4] | other results
17 | CS(=O)(=O)Nc1cccc(-c2ccc3c(c2)CNc2cc(OC(F)(F)F)ccc2O3)c1 [NCGC00371644, N-(3-(8-(Trifluoromethoxy)-10,11-dihydrodibenzo[b,f][1,4]oxazepin-2-yl)phenyl)methanesulfonamide] | −90.7 | –
18 | CC(C)(O)Cn1cc(-c2ccc3c(c2)C(=O)Nc2cc(OC(F)(F)F)ccc2O3)cn1 [NCGC00387294, 2-(1-(2-Hydroxy-2-methylpropyl)-1H-pyrazol-4-yl)-8-(trifluoromethoxy)dibenzo[b,f][1,4]oxazepin-11(10H)-one] | −82.3 | –
19 | NCCNC(=O)c1cccc(-c2ccc3c(c2)C(=O)Nc2cc(OC(F)(F)F)ccc2N3)c1 [NCGC00355568, N-(2-Aminoethyl)-3-(11-oxo-8-(trifluoromethoxy)-10,11-dihydro-5H-dibenzo[b,e][1,4]diazepin-2-yl)benzamide] | −81.4 | –
20 | NS(=O)(=O)c1cccc(-c2ccc3c(c2)C(=O)Nc2cc(OC(F)(F)F)ccc2O3)c1 [NCGC00371364, 3-(11-Oxo-8-(trifluoromethoxy)-10,11-dihydrodibenzo[b,f][1,4]oxazepin-2-yl)benzenesulfonamide] | −94.9 | –
21 | CN1C(=O)c2cc(-c3cccc(N(C)S(C)(=O)=O)c3)ccc2Oc2ccc(OC(F)(F)F)cc21 [NCGC00384286, N-Methyl-N-(3-(10-methyl-11-oxo-8-(trifluoromethoxy)-10,11-dihydrodibenzo[b,f][1,4]oxazepin-2-yl)phenyl)methanesulfonamide] | −54.6 | –
22 | CC(=O)NCc1ccc(-c2ccc3c(c2)C(=O)Nc2cc(OC(F)(F)F)ccc2O3)s1 [NCGC00388557, N-((5-(11-Oxo-8-(trifluoromethoxy)-10,11-dihydrodibenzo[b,f][1,4]oxazepin-2-yl)thiophen-2-yl)methyl)acetamide] | −81.9 | –
23 | N#CCn1cc(-c2ccc3c(c2)C(=O)Nc2cc(OC(F)(F)F)ccc2O3)cn1 [NCGC00388626, 2-(4-(11-Oxo-8-(trifluoromethoxy)-10,11-dihydrodibenzo[b,f][1,4]oxazepin-2-yl)-1H-pyrazol-1-yl)acetonitrile] | −34.8 | –
24 | NC(=O)c1cccc(-c2ccc3c(c2)C(=O)Nc2cc(OC(F)(F)F)ccc2N3)c1 [NCGC00354777, 3-(11-Oxo-8-(trifluoromethoxy)-10,11-dihydro-5H-dibenzo[b,e][1,4]diazepin-2-yl)benzamide] | −95.9 | –
25 | O=C1Nc2cc(OC(F)(F)F)ccc2Oc2ccc(-c3cnc4ccnn4c3)cc21 [NCGC00409812, 2-(pyrazolo[1,5-a]pyrimidin-6-yl)-8-(trifluoromethoxy)dibenzo[b,f][1,4]oxazepin-11(10H)-one] | −69.0 | –
26 | O=C(NCCO)c1cccc(-c2cc(Nc3ccc(OC(F)(F)F)cc3)ncn2)c1 [GNF-5] | −85.8 | –
27 | O=C1Nc2cc(OC(F)(F)F)ccc2Oc2ccc(-c3cnn(CCN4CCOCC4)c3)cc21 [NCGC00387296, 2-(1-(2-Morpholinoethyl)-1H-pyrazol-4-yl)-8-(trifluoromethoxy)dibenzo[b,f][1,4]oxazepin-11(10H)-one] | −81.7 | –
28 | O=C1Nc2cc(OC(F)(F)F)ccc2Nc2ccc(-c3cccc(C(=O)N4CCOCC4)c3)cc21 [NCGC00355558, 2-(3-(Morpholine-4-carbonyl)phenyl)-8-(trifluoromethoxy)-5,10-dihydro-11H-dibenzo[b,e][1,4]diazepin-11-one] | −89.5 | –
29 | NC(=O)c1cccc(-c2cc(Nc3ccc(OC(F)(F)F)cc3)ncn2)c1 [GNF-2] | −85.2 | % Killing [3]: 86.0%; IC50 [3]: 1.4 µM
30 | CN(C)S(=O)(=O)c1cccc(-c2ccc3c(c2)C(=O)Nc2cc(OC(F)(F)F)ccc2O3)c1 [NCGC00373057, N,N-Dimethyl-3-(11-oxo-8-(trifluoromethoxy)-10. I1-dihydrodibenzo[b,f][1,4]oxazepin-2-yl)benzenesulfonamide] | −85.1 | –
31 | O=C1Nc2cc(OC(F)(F)F)ccc2Oc2ccc(-c3cccc(C(=O)N4CCOCC4)c3)cc21 [NCGC00356745, 2-(3-(Morpholine-4-carbonyl)phenyl)-8-(trifluoromethoxy)dibenzo[b,f][1,4]oxazepin-11(10H)-one] | −98.3 | –
32 | O=C1Nc2cc(OC(F)(F)F)ccc2Oc2ccc(-c3cnn(C4COC4)c3)cc21 [NCGC00387298, 2-(1-(Oxetan-3-yl)-1H-pyrazol-4-yl)-8-(trifluoromethoxy)dibenzo[b,f][1,4]oxazepin-11(10H)-one] | −93.8 | –
